The source of these data is patent US12280051B2, “Pharmaceutical composition for topical wound treatment” (CONSEJO NACIONAL DE INVESTIGACIONES CIENTIFICAS Y TECNICAS, priority 2021, dated 2025).

The test system of data set [1] is VEGF. The experiment in a line: VEGF expression in macrophages J774 (real-time PCR). As to conditions: Macrophages J774 + LPS 25 ng/mL; Ethosuximide 0.5 mg/mL; 24 hours; FIG. 19. It is filed as cell-based, Murine. How it is done:
(§1) Cell lines were grown and maintained following the protocols of the American Type Culture Collection (ATCC, Rockville, MD, USA), using Minimum Essential Medium (MEM), Fetal Bovine Serum (FBS), L-glutamine.
(§2) To evaluate the expression of the VEGF genes, the following cell lines were used: • a. Murine macrophage cell line J774 (ATCC), stimulated with 25 ng/mL of lipopolysaccharides (LPS) from E. coli (L-8274, Sigma). • b. Adult human skin keratinocytes cell line HaCaT(ATCC).
(§3) Cells were plated for 24 hours with Ethosuximide at different concentrations to evaluate their effect on gene expression.
(§4) Monolayers of the J774 Macrophage cell lines and HaCaT Keratinocytes were used, until confluent cells were obtained, which were stimulated with Ethosuximide at 0.5 and 3.0 mg/mL as indicated in example 1, in 12-well plates, at a final volume of 300 μL/well. For the J774 macrophage line, all treatments were supplemented with LPS (25 ng/mL), using MEM 1× with LPS (25 ng/mL) as control (Control+LPS). HaCaT keratinocytes were treated with the concentrations of ethosuximide in MEM with 10% FBS, using 1× MEM as a control. […]
(§5) Levels of VEGF and GAPDH mRNA were measured in triplicate for each sample using the StepOnePlus Real-Time PCR Systems (Applied Biosystems) and the Power Up SYBR Green Master Mix (ROCHE) kit. […] Group means were determined and normalized to the MEM group for each experiment.

For data set [2], the system named is VEGF. The experiment in a line: VEGF expression in keratinocytes HaCaT (real-time PCR). The data set is classed as cell-based, human. The following applies: Ethosuximide 3.0 mg/mL, 24 hours, FIG. 19. How it is done:
as §1, §2, §3, §4, §5
A general note: Quantitative PCR measures a nucleic acid by following its amplification.

Data set [3] deals with chicken chorioallantoic membrane. The experiment in a line: Chicken Chorioallantoic Membrane Assay (CAM), angiogenesis. The data set is classed as in vivo. The following applies: 300 μl onto the chorioallantoic membrane; 24 and 48 hours; ethosuximide solutions 0.5 and 3.0 mg/mL; FIG. 18. From the text:
Angiogenesis is a complex biological process involving the generation of new blood vessels from the pre-existing vasculature. The process involves the cooperation of several different cell types, and in particular involves proliferation, survival, and tissue invasion by activated endothelial cells. Most investigations of angiogenesis include at least one in vivo study. The Chicken Chorioallantoic Membrane Assay (CAM) is suitable for a variety of applications. In this assay, the angiogenic properties of different concentrations of ethosuximide and lactic acid and the mixtures were tested.
Eggs commercial lines with a weight between 30-90 g were used. By using an ovoscope the viability of the chorioallantoic membrane was determined to select only fertilized and viable eggs. […]
Then, 300 μl of the following solutions were slowly placed onto the chorioallantoic membrane: Ethosuximide 3.0 mg/mL; Ethosuximide 0.5 mg/mL; M0; M13; M15; LAPS; Negative control (PBS). Each solution was evaluated by triplicade. […]
Angiogenesis tests: Digital images analysis was made by using the software Image J plus. The length of vascularization (cm) per CAM area (cm^2) was evaluated before solution addition (basal) and after 24 and 48 hours. Then, the percentage of increase of vascularization was calculated.

Data set [4] is described as follows: Chelating capacity: remaining Zinc (unchelated). The data set is classed as physicochemical. As to conditions: pH 7.0; EDTA at all concentrations tested; combination of Zinc, Calcium and Magnesium. How it is done: The following solutions were prepared in Mixing solvent (MS) at pH 7.0. All solutions were supplemented with ZnCl2 (1 ppm), CaCl2 (100 ppm) and MgCl2 (25 ppm). The concentrations of Zn, Ca and Mg used here, were close to those typically found in exudates from chronic wounds. The pH chosen for the reaction (7.0) would result from the combination of compositions of present invention (pH 5.5) and the exudate from a chronic wound (pH 8.5). Prepared solutions were: EDTA (0.25, 0.50 and 0.75 mg/mL) as indicated in example 1; M0, M13, […] were elaborated according to examples 18 to 21. and LAPS deproteinized: Over a LAPS 24 h sample obtained according to example 1, a deproteinization process was performed using reagents and indications of the commercial kit employed. Measurement of remaining Zinc (unchelated) in the prepared solutions: A commercial Zinc measurement kit (Randox Lab) was used. This is a colorimetric method based on the reaction of Zinc with Dimethylglyoxime and Salicylaldoxin at alkaline pH, giving a colored complex photocolorimetrically measurable at 560 nm. For the determination of Zinc in LAPS, a previous deproteinization step was necessary. Therefore, equal parts of LAPS and deproteinizing reagent (Trichloroacetic Acid 370 mmol/L) were mixed in conical tubes, homogenized and centrifuged for 10 min at 10,000×g. The supernatant was used for the test.

The nature of data set [5]: Chelating capacity: remaining Calcium (unchelated). As to conditions: pH 7.0. The data set is classed as physicochemical. The procedure:
The following solutions were prepared in Mixing solvent (MS) at pH 7.0. All solutions were supplemented with ZnCl2 (1 ppm), CaCl2 (100 ppm) and MgCl2 (25 ppm). The concentrations of Zn, Ca and Mg used here, were close to those typically found in exudates from chronic wounds. The pH chosen for the reaction (7.0) would result from the combination of compositions of present invention (pH 5.5) and the exudate from a chronic wound (pH 8.5). Prepared solutions were: EDTA (0.25, 0.50 and 0.75 mg/mL) as indicated in example 1; M0, M13, […] were elaborated according to examples 18 to 21. and LAPS deproteinized: Over a LAPS 24 h sample obtained according to example 1, a deproteinization process was performed using reagents and indications of the commercial kit employed. Measurement of remaining Calcium (unchelated) in the prepared solutions: A commercial Calcium measurement kit (Wiener Lab) was used. This is a colorimetric method based on the reaction of calcium with o-cresolphthalein complexone (o-CPC) at alkaline pH, giving a photocolorimetrically measurable magenta complex at 570 nm.

The subject of data set [6] is Intercellular adhesion molecule-1 (ICAM-1). As to conditions: cited from earlier work.
In data set [7] the test system is Staphylococcus aureus MTCC 96. The following applies: cited from earlier work.
Data set [8] concerns Pseudomonas aeruginosa. MTCC741. The following applies: cited from earlier work.
Data set [9] deals with highly polymerized DNA. The experiment in a line: DNAse activity halos in DNAse agar and conservation in time. The data set is classed as biochemical. As to conditions: DNAse 0.97 μg/mL alone (C2); DNAse agar, 24 hours at 32° C. The source says:
DNAse agar is a culture medium that contains highly polymerized DNA and agar as solidifying agents. The DNA is the substratum of the deoxyribonuclease enzyme (DNAse) which hydrolyzes it. This medium allows to detect DNAse activity in different samples and microorganisms. The presence of the enzyme could be visualized adding hydrochloric acid 1N. The hydrolyzed deoxyribonucleic acid presents transparency while the polymerized deoxyribonucleic acid precipitates generating resulting in a opacity on the culture media
Plates preparation: DNAse agar plates were prepared according to manufacturer recommendations (Britania, CABA, Argentina). A volume of 20 mL of the molten media was employed reaching an agar height of 2 mm in the plates. Wells of 5 mm o diameter were made over the agar using a sterile punch. Therefore, the sown volume in each well was π×r^2×h=π×(2.5 mm)^2×2 mm=40 mm=40 μL. […]
Analyzed samples: LAPS, M0, M13, M15, M16 (All gelled with hydroxyethyl cellulose) stored at 25° C. and 4° C. DNAse activity was measured once a week for 6 months. […]
Then, the plates were rested and were observed up to no more than 5 minutes after adding the HCl. DNase activity was measured analyzing the transparent evanescence around the planting zone recording in millimeters the halos diameter.

In the case of `CCC1(C)CC(=O)NC1=O` (stereo not shown) [Ethosuximide, ethosuximide], the “VEGF expression level normalized to GAPDH” value in data set [1] and in [2] was “induced” throughout. For the same molecule, in [3], the “percentage of increase of vascularization (angiogenic effect)” value was “showed angiogenic properties although it was better at 0.5 mg/mL than 3.0 mg/mL”.

Turning to `O=C(O)CN(CCN(CC(=O)O)CC(=O)O)CC(=O)O` [EDTA, ethylenediaminetetraacetic acid], in data set [4], the Zinc chelation percentage result was “completely chelate”. Besides, the Calcium chelation percentage result was “not able to chelate all the available calcium” in data set [5] (EDTA 0.25 mg/mL); “completely” in data set [5] (EDTA at 0.50, 0.75 and 1.00 mg/mL, combination of zinc, calcium and magnesium).

Consider `CC(=O)N[C@@H](CS)C(=O)O` [NAC, N-acetyl cysteine], for which the ICAM-1 expression entry in [6] is on record as “concentration dependent inhibition”.

Take “XYLENTRA®: synthetically engineered antimicrobial peptide of U.S. Pat. No. 10,285,938 B2”: the antibacterial activity result in data set [7] and in data set [8] was “significant antibacterial activity” throughout.

B1: DNAse: rh-Dornase alfa (recombinant human DNase, Roche) diluted in mixing solvent; C2 0.97 μg/mL, C4 3.90 μg/mL (protein, UniProt P24855 23-282, looked up)
Deoxyribonuclease-1: LKIAAFNIQTFGETKMSNATLVSYIVQILSRYDIALVQEVRDSHLTAVGKLLDNLNQDAPDTYHYVVSEPLGRNSYKERYLFVYRPDQVSAVDSYYYDDGCEPCGNDTFNREPAIVRFFSRFTEVREFAIVPLHAAPGDAVAEIDALYDVYLDVQEKWGLEDVMLMGDFNAGCSYVRPSQWSSIRLWTSPTFQWLIPDSADTTATPTHCAYDRIVVAGMLLRGAVVPDSALPFNFQAAYGLSDQLAQAISDHYPVEVMLK
In the case of B1, in data set [9], the “halos of DNAse activity” value is recorded as 8-10 mm.
